Data reported in ChEMBL document CHEMBL4808193, “[11]-Chaetoglobosins from Pseudeurotium bakeri Induce G2/M Cell Cycle Arrest and Apoptosis in Human Cancer Cells” (J Nat Prod, 2021).

How the values were obtained:
HepG2 = assay: Cytotoxicity against human HepG2 cells assessed as reduction in cell viability by MTT assay; format: functional, cell-based
A-427 [1] = assay: Induction of apoptosis in human A-427 cells assessed as late apoptotic cells at 5 uM measured after 24 hrs by Annexin V-FITC/propidium iodide staining based flow cytometric analysis (reference value: 3.59%); format: functional
MCF7 [2] = assay: Cell cycle arrest in human MCF7 cells assessed as accumulation at S phase at 10 uM measured after 24 hrs by PI staining based flow cytometry (reference value: 9.43%); format: functional
A-427 [3] = assay: Cell cycle arrest in human A-427 cells assessed as accumulation at G0/G1 phase at 2 uM measured after 24 hrs by PI staining based flow cytometry (reference value: 60.57%); format: functional
A-427 [4] = assay: Cell cycle arrest in human A-427 cells assessed as accumulation at S phase at 2 uM measured after 24 hrs by PI staining based flow cytometry (reference value: 25.84%); format: functional
MCF7 [5] = assay: Cell cycle arrest in human MCF7 cells assessed as accumulation at G0/G1 phase at 5 uM measured after 24 hrs by PI staining based flow cytometry (reference value: 61.67%); format: functional
A-427 [6] = assay: Induction of apoptosis in human A-427 cells assessed as early apoptotic cells at 7.5 uM measured after 24 hrs by Annexin V-FITC/propidium iodide staining based flow cytometric analysis (reference value: 4.75%); format: functional
MCF7 [7] = assay: Cell cycle arrest in human MCF7 cells assessed as accumulation at G2/M phase at 10 uM measured after 24 hrs by PI staining based flow cytometry (reference value: 18.9%); format: functional
A-427 [8] = assay: Cell cycle arrest in human A-427 cells assessed as accumulation at G2/M phase at 2 uM measured after 24 hrs by PI staining based flow cytometry (reference value: 13.59%); format: functional
HeLa = assay: Cytotoxicity against human HeLa cells assessed as reduction in cell viability by MTT assay; format: functional, cell-based
A549 = assay: Cytotoxicity against human A549 cells assessed as reduction in cell viability by MTT assay; format: functional, cell-based
MCF7 [9] = assay: Induction of apoptosis in human MCF7 cells assessed as early apoptotic cells at 7.5 uM measured after 24 hrs by Annexin V-FITC/propidium iodide staining based flow cytometric analysis (reference value: 3.07%); format: functional
MCF7 [10] = assay: Cytotoxicity against human MCF7 cells assessed as reduction in cell viability by MTT assay; format: functional, cell-based
A-427 [11] = assay: Cell cycle arrest in human A-427 cells assessed as accumulation at G0/G1 phase at 6 uM measured after 24 hrs by PI staining based flow cytometry (reference value: 60.57%); format: functional
A-427 [12] = assay: Induction of apoptosis in human A-427 cells assessed as late apoptotic cells at 7.5 uM measured after 24 hrs by Annexin V-FITC/propidium iodide staining based flow cytometric analysis (reference value: 3.59%); format: functional
A-427 [13] = assay: Cytotoxicity against human A-427 cells assessed as reduction in cell viability by MTT assay; format: functional, cell-based
MCF7 [14] = assay: Induction of apoptosis in human MCF7 cells assessed as early apoptotic cells at 5 uM measured after 24 hrs by Annexin V-FITC/propidium iodide staining based flow cytometric analysis (reference value: 3.07%); format: functional
A-427 [15] = assay: Induction of apoptosis in human A-427 cells assessed as early apoptotic cells at 5 uM measured after 24 hrs by Annexin V-FITC/propidium iodide staining based flow cytometric analysis (reference value: 4.75%); format: functional
A-427 [16] = assay: Induction of apoptosis in human A-427 cells assessed as early apoptotic cells at 2.5 uM measured after 24 hrs by Annexin V-FITC/propidium iodide staining based flow cytometric analysis (reference value: 4.75%); format: functional
A-427 [17] = assay: Cell cycle arrest in human A-427 cells assessed as accumulation at G2/M phase at 4 uM measured after 24 hrs by PI staining based flow cytometry (reference value: 13.59%); format: functional
A-427 [18] = assay: Cell cycle arrest in human A-427 cells assessed as accumulation at S phase at 4 uM measured after 24 hrs by PI staining based flow cytometry (reference value: 25.84%); format: functional
MCF7 [19] = assay: Cell cycle arrest in human MCF7 cells assessed as accumulation at G0/G1 phase at 7.5 uM measured after 24 hrs by PI staining based flow cytometry (reference value: 61.67%); format: functional
MCF7 [20] = assay: Cell cycle arrest in human MCF7 cells assessed as accumulation at G2/M phase at 7.5 uM measured after 24 hrs by PI staining based flow cytometry (reference value: 18.9%); format: functional
A-427 [21] = assay: Induction of apoptosis in human A-427 cells assessed as late apoptotic cells at 2.5 uM measured after 24 hrs by Annexin V-FITC/propidium iodide staining based flow cytometric analysis (reference value: 3.59%); format: functional
MCF7 [22] = assay: Induction of apoptosis in human MCF7 cells assessed as late apoptotic cells at 5 uM measured after 24 hrs by Annexin V-FITC/propidium iodide staining based flow cytometric analysis (reference value: 1.19%); format: functional
MCF7 [23] = assay: Induction of apoptosis in human MCF7 cells assessed as early apoptotic cells at 10 uM measured after 24 hrs by Annexin V-FITC/propidium iodide staining based flow cytometric analysis (reference value: 3.07%); format: functional
MCF7 [24] = assay: Cell cycle arrest in human MCF7 cells assessed as accumulation at S phase at 7.5 uM measured after 24 hrs by PI staining based flow cytometry (reference value: 9.43%); format: functional
MCF7 [25] = assay: Induction of apoptosis in human MCF7 cells assessed as late apoptotic cells at 7.5 uM measured after 24 hrs by Annexin V-FITC/propidium iodide staining based flow cytometric analysis (reference value: 1.19%); format: functional
L02 = assay: Cytotoxicity against human L02 cells assessed as reduction in cell viability by MTT assay; format: cell-based
A-427 [26] = assay: Cell cycle arrest in human A-427 cells assessed as accumulation at S phase at 6 uM measured after 24 hrs by PI staining based flow cytometry (reference value: 25.84%); format: functional
MCF7 [27] = assay: Cell cycle arrest in human MCF7 cells assessed as accumulation at G0/G1 phase at 10 uM measured after 24 hrs by PI staining based flow cytometry (reference value: 61.67%); format: functional
MCF7 [28] = assay: Induction of apoptosis in human MCF7 cells assessed as late apoptotic cells at 10 uM measured after 24 hrs by Annexin V-FITC/propidium iodide staining based flow cytometric analysis (reference value: 1.19%); format: functional
A-427 [29] = assay: Cell cycle arrest in human A-427 cells assessed as accumulation at G0/G1 phase at 4 uM measured after 24 hrs by PI staining based flow cytometry (reference value: 60.57%); format: functional
A-427 [30] = assay: Cell cycle arrest in human A-427 cells assessed as accumulation at G2/M phase at 6 uM measured after 24 hrs by PI staining based flow cytometry (reference value: 13.59%); format: functional
HT-29 = assay: Cytotoxicity against human HT-29 cells assessed as reduction in cell viability by MTT assay; format: functional, cell-based
HCT-116 = assay: Cytotoxicity against human HCT-116 cells assessed as reduction in cell viability by MTT assay; format: functional, cell-based
MCF7 [31] = assay: Cell cycle arrest in human MCF7 cells assessed as accumulation at G2/M phase at 5 uM measured after 24 hrs by PI staining based flow cytometry (reference value: 18.9%); format: functional
MCF7 [32] = assay: Cell cycle arrest in human MCF7 cells assessed as accumulation at S phase at 5 uM measured after 24 hrs by PI staining based flow cytometry (reference value: 9.43%); format: functional

## CC1=C[C@@H]2/C=C/C[C@H](C)CC(=O)/C=C\C(=O)[C@]23C(=O)N[C@@H](Cc2c[nH]c4ccccc24)[C@@H]3[C@@H]1C
HepG2
  IC50: 9.6 µM
A-427 [1]
  Activity: 23.7%
MCF7 [2]
  Activity: 12.31%
A-427 [3]
  Activity: 44.94%
A-427 [4]
  Activity: 20.39%
MCF7 [5]
  Activity: 37.81%
A-427 [6]
  Activity: 27.61%
MCF7 [7]
  Activity: 60.73%
A-427 [8]
  Activity: 34.67%
HeLa
  IC50: 8.4 µM
A549
  IC50: 7.9 µM
MCF7 [9]
  Activity: 25.77%
MCF7 [10]
  IC50: 7.2 µM
A-427 [11]
  Activity: 27.41%
A-427 [12]
  Activity: 32.81%
A-427 [13]
  IC50: 6.6 µM
MCF7 [14]
  Activity: 18.98%
A-427 [15]
  Activity: 23.77%
A-427 [16]
  Activity: 12.11%
A-427 [17]
  Activity: 44.26%
A-427 [18]
  Activity: 21.18%
MCF7 [19]
  Activity: 35%
MCF7 [20]
  Activity: 51.12%
A-427 [21]
  Activity: 17.54%
MCF7 [22]
  Activity: 7.3%
MCF7 [23]
  Activity: 28.62%
MCF7 [24]
  Activity: 13.87%
MCF7 [25]
  Activity: 7.41%
L02
  IC50: 35.5 µM
A-427 [26]
  Activity: 22.56%
MCF7 [27]
  Activity: 26.96%
MCF7 [28]
  Activity: 9.17%
A-427 [29]
  Activity: 34.56%
A-427 [30]
  Activity: 50.04%
HT-29
  IC50: 8.2 µM
HCT-116
  IC50: 10.6 µM
MCF7 [31]
  Activity: 48.62%
MCF7 [32]
  Activity: 13.57%
